Tests used:
Format in all cases: ADME, organism-based
Details in all cases: rat, read-out: Hydrolysis
[1] = Compound was tested for percent hydrolysis in whole blood, after a time interval of 15.0 min
[2] = Compound was tested for percent hydrolysis in whole blood after a time interval of 5.0 min
[3] = Compound was tested for percent hydrolysis in whole blood after a time interval of 0.5 min
[4] = Compound was tested for percent hydrolysis in whole blood after a time interval of 60.0 min
[5] = Compound was tested for percent hydrolysis in whole blood after a time interval of 2.0 min
[6] = Compound was tested for percent hydrolysis in whole blood after a time interval of 180.0 min
[7] = Compound was tested for percent hydrolysis in whole blood after a time interval of 7.0 min

SMILES | metabolised at 0.25 h [1] [%] | metabolised at 5 min [2] [%] | metabolised at 0.5 min [3] [%] | metabolised at 1 h [4] [%] | metabolised at 2 min [5] [%] | metabolised at 3 h [6] [%] | metabolised at 7 min [7] [%]
O=C(CN1CCOCC1)OCN1C(=O)NC(c2ccccc2)(c2ccccc2)C1=O | 93.6 | 91 | 28.7 | 99.3 | 80.1 |  | 
O=C(CN1CCCCC1)OCN1C(=O)NC(c2ccccc2)(c2ccccc2)C1=O |  | 97.5 | 49.2 |  | 96.5 |  | 
CC(OC(=O)CCCC(=O)O)N1C(=O)NC(c2ccccc2)(c2ccccc2)C1=O (stereo unspecified) | 37.2 |  | 15 | 39.6 | 26.7 | 45.1 | 36.9
O=C1NC(c2ccccc2)(c2ccccc2)C(=O)N1COP(=O)(O)O [FOSPHENYTOIN SODIUM] | 45.4 |  | 7.95 | 87.5 | 11.6 | 95.3 | 25
CC(OC(=O)CCC(=O)O)N1C(=O)NC(c2ccccc2)(c2ccccc2)C1=O (stereo unspecified) | 55.9 |  | 25.7 | 59.6 | 42.4 | 69.2 | 52.8

Source: ChEMBL document CHEMBL1131774, “Synthesis of water-soluble phenytoin prodrugs” (Bioorg Med Chem Lett, 1999)
